SMILES strings stand for the structures. Structures can show the parent of a compound that is named as a salt.

The target in one experiment is T1, human factor XIa (Homo sapiens, UniProt P03951).
T1 construct: purchased Kordia
Briefly: Measurement of FXIa inhibition (fluorogenic peptide substrate Boc-Glu(OBzl)-Ala-Arg-AMC). The class given is biochemical. The conditions noted are these: factor XIa from Kordia 0.45 nM; 15 min preincubation; 30 min at 22° C. On the procedure: The factor XIa inhibition of the substances according to the invention is determined using a biochemical test system which utilizes the reaction of a peptidic factor XIa substrate to determine the enzymatic activity of human factor XIa. Here, factor XIa cleaves from the peptic factor XIa substrate the C-terminal aminomethylcoumarin (AMC), the fluorescence of which is measured. The determinations are carried out in microtitre plates.
Test substances are dissolved in dimethyl sulphoxide and serially diluted in dimethyl sulphoxide (3000 μM to 0.0078 μM; resulting final concentrations in the test: 50 μM to 0.00013 μM). In each case 1 μl of the diluted substance solutions is placed into the wells of white microtitre plates from Greiner (384 wells). Subsequently, the following are added successively: 20 μl of assay buffer (50 mmol/l Tris buffer pH 7.4; 100 mmol/l sodium chloride; 5 mmol/l calcium chloride; 0.1% bovine serum albumin) and 20 μl of factor XIa from Kordia (0.45 nM in assay buffer). After 15 min of incubation, the enzyme reaction is started by addition of 20 μl of the factor XIa substrate Boc-Glu(OBzl)-Ala-Arg-AMC dissolved in assay buffer (10 μM in assay buffer) from Bachem, the mixture is incubated at room temperature (22° C.) for 30 min and fluorescence is then measured (excitation: 360 nm, emission: 460 nm). The measured emissions of the test batches with test substance are compared to those of control batches without test substance (only dimethyl sulphoxide instead of test substance in dimethyl sulphoxide), and IC50 values are calculated from the concentration/activity relationships.

Another experiment deals with human and animal plasma. Description: Determination of anticoagulatory activity: activated partial thromboplastin time (aPTT) in plasma. The class given is biochemical. The conditions noted are these: C.K. Prest kit, 37° C., 3 minutes incubation, plasma species of Table B not stated. On the procedure: The anticoagulatory activity of the test substances is determined in vitro in human and animal plasma (for example mouse, rat, rabbit, pig and dog plasma). To this end, blood is drawn off in a mixing ratio of sodium citrate/blood of 1:9 using a 0.11 molar sodium citrate solution as receiver. Immediately after the blood has been drawn off, it is mixed thoroughly and centrifuged at about 4000 g for 15 minutes. The supernatant is pipetted off.
The activated partial thromboplastin time (aPTT) is determined in the presence of varying concentrations of test substance or the corresponding solvent using a commercial test kit (C.K. Prest from Diagnostica Stago). The test compounds are incubated with the plasma and the PTT reagent (cephalin, kaolin) at 37° C. for 3 minutes. Coagulation is then started by addition of a 25 mM aqueous calcium chloride solution, and the time when coagulation occurs is determined. The concentration of test substance which brings about a 1.5-fold extension of the aPTT is determined Activity data from this test are listed in Table B below: […]

T1 sequence (P03951 388-625 limits assumed): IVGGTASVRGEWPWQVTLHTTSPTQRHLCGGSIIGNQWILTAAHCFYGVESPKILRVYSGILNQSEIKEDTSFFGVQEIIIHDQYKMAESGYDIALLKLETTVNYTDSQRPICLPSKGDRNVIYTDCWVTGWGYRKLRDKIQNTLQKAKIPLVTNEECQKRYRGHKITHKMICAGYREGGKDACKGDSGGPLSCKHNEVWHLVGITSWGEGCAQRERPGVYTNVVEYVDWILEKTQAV
T1 sequence (P03951 19-387 partner limits assumed): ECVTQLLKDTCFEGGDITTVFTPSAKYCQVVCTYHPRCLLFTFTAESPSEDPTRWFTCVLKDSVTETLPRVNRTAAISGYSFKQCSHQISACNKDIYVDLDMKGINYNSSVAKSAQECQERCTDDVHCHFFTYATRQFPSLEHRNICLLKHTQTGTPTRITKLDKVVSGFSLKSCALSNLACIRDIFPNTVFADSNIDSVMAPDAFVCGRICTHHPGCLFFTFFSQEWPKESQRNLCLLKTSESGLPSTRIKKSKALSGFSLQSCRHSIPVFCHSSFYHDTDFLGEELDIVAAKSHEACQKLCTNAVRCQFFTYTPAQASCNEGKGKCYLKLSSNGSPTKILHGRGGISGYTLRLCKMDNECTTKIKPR

A word on the IC50: it is the midpoint of a concentration-inhibition curve. Low readings indicate inhibition by little substance, high ones a need for much substance. As to `CCN(CC)CCNC(=O)c1cccc(-c2ccc(C[C@H](NC(=O)[C@H]3CC[C@H](CN)CC3)C(=O)Nc3ccc(-c4nn[nH]n4)cc3)cc2)c1F` [Example 16, 4′-[(2S)-2-({[trans-4-(Aminomethyl)cyclohexyl]carbonyl}amino)-3-oxo-3-{[4-(2H-tetrazol-5-yl)phenyl]amino}propyl]-N-[2-(diethylamino)ethyl]-2-fluorobiphenyl-3-carboxamide hydrochloride], the IC50 on human factor XIa was 9 nM. The “aPTT (concentration of test substance which brings about a 1.5-fold extension of the aPTT)” value in the experiment with human and animal plasma was found to be 0.2 µmol/L.

As to `Cc1ccc(S(=O)(=O)N2CCCC2)cc1-c1ccc(C[C@H](NC(=O)[C@H]2CC[C@H](CN)CC2)C(=O)Nc2ccc3[nH]c(=O)[nH]c3c2)cc1` [Example 7, trans-4-(Aminomethyl)-N-{(2S)-3-[2′-methyl-5′-(pyrrolidin-1-ylsulphonyl)biphenyl-4-yl]-1-oxo-1-[(2-oxo-2,3-dihydro-1H-benzimidazol-5-yl)amino]propan-2-yl}cyclohexanecarboxamide hydrochloride], half-maximal inhibition at human factor XIa (IC50) was put at 11 nM. In addition, the “aPTT (concentration of test substance which brings about a 1.5-fold extension of the aPTT)” value in the experiment with human and animal plasma stood at 0.39 µmol/L.

At human factor XIa, `COc1ccc(-c2ccc(C[C@H](NC(=O)[C@H]3CC[C@H](CN)CC3)C(=O)Nc3ccc(-c4nnn[nH]4)cc3)cc2)cc1S(=O)(=O)N1CCOCC1` [Example 24, trans-4-(Aminomethyl)-N-[(2S)-3-[4′-methoxy-3′-(morpholin-4-ylsulphonyl)biphenyl-4-yl]-1-oxo-1-{[4-(1H-tetrazol-5-yl)phenyl]amino}propan-2-yl]cyclohexanecarboxamide hydrochloride] yielded an IC50 of 2 nM. The “aPTT (concentration of test substance which brings about a 1.5-fold extension of the aPTT)” value in the experiment on human and animal plasma was determined as 0.09 µmol/L.

On human factor XIa, `CCN(CC)CCNC(=O)c1ccc(C)c(-c2ccc(C[C@H](NC(=O)[C@H]3CC[C@H](CN)CC3)C(=O)Nc3ccc(-c4nn[nH]n4)cc3)cc2)c1` [Example 10, 4′-[(2S)-2-({[trans-4-(Aminomethyl)cyclohexyl]carbonyl}amino)-3-oxo-3-{[4-(2H-tetrazol-5-yl)phenyl]amino}propyl]-N-[2-(diethylamino)ethyl]-6-methylbiphenyl-3-carboxamide hydrochloride] registered an IC50 of 8 nM. Besides, the “aPTT (concentration of test substance which brings about a 1.5-fold extension of the aPTT)” value in the experiment on human and animal plasma turned out to be 0.38 µmol/L.

In turn, `Cc1ccc(C(=O)N2CCOCC2)cc1-c1ccc(C[C@H](NC(=O)[C@H]2CC[C@H](CN)CC2)C(=O)Nc2ccc(-c3nn[nH]n3)cc2)cc1` [Example 33, trans-4-(Aminomethyl)-N-[(2S)-3-[2′-methyl-5′-(morpholin-4-ylcarbonyl)biphenyl-4-yl]-1-oxo-1-{[4-(2H-tetrazol-5-yl)phenyl]amino}propan-2-yl]cyclohexanecarboxamide hydrochloride] gave an IC50 on human factor XIa of 5.4 nM. Moreover, the “aPTT (concentration of test substance which brings about a 1.5-fold extension of the aPTT)” value in the experiment on human and animal plasma is 0.18 µmol/L.

`Cc1cc(C(=O)NC2CCN(C)CC2)cc(-c2ccc(C[C@H](NC(=O)[C@H]3CC[C@H](CN)CC3)C(=O)Nc3ccc(-c4nn[nH]n4)cc3)cc2)c1C` [Example 34, 4′-[(2S)-2-({[trans-4-(Aminomethyl)cyclohexyl]carbonyl}amino)-3-oxo-3-{[4-(2H-tetrazol-5-yl)phenyl]amino}propyl]-5,6-dimethyl-N-(1-methylpiperidin-4-yl)biphenyl-3-carboxamide hydrochloride]: on human factor XIa, the IC50 turned out to be 4.1 nM. Besides, the “aPTT (concentration of test substance which brings about a 1.5-fold extension of the aPTT)” value in the experiment on human and animal plasma amounted to 0.06 µmol/L.

`Cc1ccc(C(=O)N[C@@H]2CCNC2)cc1-c1ccc(C[C@H](NC(=O)[C@H]2CC[C@H](CN)CC2)C(=O)Nc2ccc(-c3nn[nH]n3)cc2)cc1` [Example 11, 4′-[(2S)-2-({[trans-4-(Aminomethyl)cyclohexyl]carbonyl}amino)-3-oxo-3-{[4-(2H-tetrazol-5-yl)phenyl]amino}propyl]-6-methyl-N-[(3R)-pyrrolidin-3-yl]biphenyl-3-carboxamide hydrochloride] came in with an IC50 at human factor XIa of 6.9 nM. In addition, the “aPTT (concentration of test substance which brings about a 1.5-fold extension of the aPTT)” value in the experiment on human and animal plasma stood at 0.26 µmol/L.

The compound `COc1ccc(-c2ccc(C[C@H](NC(=O)[C@H]3CC[C@H](CN)CC3)C(=O)Nc3ccc(-c4nc(C(F)(F)C(F)(F)C(=O)O)n[nH]4)cc3)cc2)cc1S(=O)(=O)N1CCOCC1` [Example 44, 3-{5-[4-({(2S)-2-({[trans-4-(Aminomethyl)cyclohexyl]carbonyl}amino)-3-[4′-methoxy-3′-(morpholin-4-ylsulphonyl)biphenyl-4-yl]propanoyl}amino)phenyl]-1H-1,2,4-triazol-3-yl}-2,2,3,3-tetrafluoropropanoic acid hydrochloride] gave an IC50 against human factor XIa of 2.2 nM. For the same compound, the “aPTT (concentration of test substance which brings about a 1.5-fold extension of the aPTT)” value with human and animal plasma worked out at 0.2 µmol/L.

In turn, `Cc1ccc(C(=O)NC(C)C)cc1-c1ccc(C[C@H](NC(=O)[C@H]2CC[C@H](CN)CC2)C(=O)Nc2ccc(-c3nc(CCC(=O)O)n[nH]3)cc2)cc1` [Example 43, 3-{5-[4-({(2S)-2-({[trans-4-(Aminomethyl)cyclohexyl]carbonyl}amino)-3-[5′-(isopropylcarbamoyl)-2′-methylbiphenyl-4-yl]propanoyl}amino)phenyl]-1H-1,2,4-triazol-3-yl}propanoic acid hydrochloride] gave an IC50 on human factor XIa of 9.7 nM. Moreover, the “aPTT (concentration of test substance which brings about a 1.5-fold extension of the aPTT)” value in the experiment with human and animal plasma was found to be 0.38 µmol/L.

`NC[C@H]1CC[C@H](C(=O)N[C@@H](Cc2ccc(-c3cccc(C(=O)NC4CCNCC4)c3)cc2)C(=O)Nc2ccc(-c3nn[nH]n3)cc2)CC1` [Example 13, 4′-[(2S)-2-({[trans-4-(Aminomethyl)cyclohexyl]carbonyl}amino)-3-oxo-3-{[4-(2H-tetrazol-5-yl)phenyl]amino}propyl]-N-(piperidin-4-yl)biphenyl-3-carboxamide hydrochloride]: the IC50 against human factor XIa came to 17 nM. For the same compound, the “aPTT (concentration of test substance which brings about a 1.5-fold extension of the aPTT)” value with human and animal plasma amounted to 0.28 µmol/L.

In turn, `Cc1ccc(S(=O)(=O)N(C)C)cc1-c1ccc(C[C@H](NC(=O)[C@H]2CC[C@H](CN)CC2)C(=O)Nc2ccc(-c3nnc(Cl)[nH]3)cc2)cc1` [Example 3, trans-4-(Aminomethyl)-N-{(2S)-1-{[4-(5-chloro-4H-1,2,4-triazol-3-yl)phenyl]amino}-3-[5′-(dimethylsulphamoyl)-2′-methylbiphenyl-4-yl]-1-oxopropan-2-yl}cyclohexanecarboxamide hydrochloride] displayed an IC50 on human factor XIa of 2.8 nM. Moreover, in the experiment on human and animal plasma, the “aPTT (concentration of test substance which brings about a 1.5-fold extension of the aPTT)” value amounted to 0.19 µmol/L.

In turn, `Cc1cc(C(=O)NC2CCNCC2)cc(-c2ccc(C[C@H](NC(=O)[C@H]3CC[C@H](CN)CC3)C(=O)Nc3ccc(-c4nn[nH]n4)cc3)cc2)c1` [Example 40, 4′-[(2S)-2-({[trans-4-(Aminomethyl)cyclohexyl]carbonyl}amino)-3-oxo-3-{[4-(2H-tetrazol-5-yl)phenyl]amino}propyl]-5-methyl-N-(piperidin-4-yl)biphenyl-3-carboxamide hydrochloride] displayed a half-inhibitory concentration (IC50) against human factor XIa of 4.1 nM. Further, in the experiment with human and animal plasma, the “aPTT (concentration of test substance which brings about a 1.5-fold extension of the aPTT)” value was found to be 0.06 µmol/L.

Compound `NC[C@H]1CC[C@H](C(=O)N[C@@H](Cc2ccc(-c3cccc(C(=O)NC4CCNCC4)c3F)cc2)C(=O)Nc2ccc(-c3nn[nH]n3)cc2)CC1` [Example 15, 4′-[(2S)-2-({[trans-4-(Aminomethyl)cyclohexyl]carbonyl}amino)-3-oxo-3-{[4-(2H-tetrazol-5-yl)phenyl]amino}propyl]-2-fluoro-N-(piperidin-4-yl)biphenyl-3-carboxamide hydrochloride] registered an IC50 against human factor XIa of 10 nM. In addition, in the experiment on human and animal plasma, the “aPTT (concentration of test substance which brings about a 1.5-fold extension of the aPTT)” value was 0.52 µmol/L.

On to `CN1CCN(C(=O)c2cccc(-c3ccc(C[C@H](NC(=O)[C@H]4CC[C@H](CN)CC4)C(=O)Nc4ccc(-c5nnn[nH]5)cc4)cc3)c2)CC1` [Example 5, trans-4-(Aminomethyl)-N-[(2S)-3-{3′-[(4-methylpiperazin-1-yl)carbonyl]biphenyl-4-yl}-1-oxo-1-{[4-(1H-tetrazol-5-yl)phenyl]amino}propan-2-yl]cyclohexanecarboxamide hydrochloride], for which the IC50 against human factor XIa is 11 nM. Also, the “aPTT (concentration of test substance which brings about a 1.5-fold extension of the aPTT)” value in the experiment on human and animal plasma is 0.37 µmol/L.
